# Test results from PubChem BioAssay AID1963980 (Molecular Pharmacology Branch, DTP, NCI, 2024).
# Test system: 475296-252-R-J1-PDC spheroid viability
# Experiment: Anticancer human tumor 475296-252-R-J1-PDC patient-derived rectal carcinoma cell line growth inhibition [PI3K]
# Details: spheroids with HUVEC and MSC; for IC50: curve of first compound; for viability, T/C: stronger effect = lower value
# In short: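 Tumor cells were combined with HUVEC and MSCs into spheroids, then dosed with PI3K-inhibitor combinations over half-log ranges capped near clinical Cmax or 10 microM.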
# [1] = second compound 0.0316 µM, first compound 0.0316 µM
# [2] = second compound 0.0316 µM, first compound 0.1 µM
# [3] = second compound 0.0316 µM, first compound 0.316 µM
# [4] = second compound 0.0316 µM, first compound 1 µM
# [5] = second compound 0.0316 µM, first compound 3.16 µM
# [6] = second compound 0.0316 µM, first compound 10 µM
# [7] = second compound 0.1 µM, first compound 0.0316 µM
# [8] = second compound 0.1 µM, first compound 0.1 µM
# [9] = second compound 0.1 µM, first compound 0.316 µM
# [10] = second compound 0.1 µM, first compound 1 µM
# [11] = second compound 0.1 µM, first compound 3.16 µM
# [12] = second compound 0.1 µM, first compound 10 µM
# [13] = second compound 0.316 µM, first compound 0.0316 µM
# [14] = second compound 0.316 µM, first compound 0.1 µM
# [15] = second compound 0.316 µM, first compound 0.316 µM
# [16] = second compound 0.316 µM, first compound 1 µM
# [17] = second compound 0.316 µM, first compound 3.16 µM
# [18] = second compound 0.316 µM, first compound 10 µM
# [19] = second compound 1 µM, first compound 0.0316 µM
# [20] = second compound 1 µM, first compound 0.1 µM
# [21] = second compound 1 µM, first compound 0.316 µM
# [22] = second compound 1 µM, first compound 1 µM
# [23] = second compound 1 µM, first compound 3.16 µM
# [24] = second compound 1 µM, first compound 10 µM
# [25] = second compound 3.16 µM, first compound 0.0316 µM
# [26] = second compound 3.16 µM, first compound 0.1 µM
# [27] = second compound 3.16 µM, first compound 0.316 µM
# [28] = second compound 3.16 µM, first compound 1 µM
# [29] = second compound 3.16 µM, first compound 3.16 µM
# [30] = second compound 3.16 µM, first compound 10 µM
# [31] = second compound 10 µM, first compound 0.0316 µM
# [32] = second compound 10 µM, first compound 0.1 µM
# [33] = second compound 10 µM, first compound 0.316 µM
# [34] = second compound 10 µM, first compound 1 µM
# [35] = second compound 10 µM, first compound 3.16 µM
# [36] = second compound 10 µM, first compound 10 µM
# 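Note: spheroids exposed to agents for seven days before readout.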
compound,measurement,setting,value
C#Cc1c(F)ccc2cc(O)cc(-c3ncc4c(N5CC6CCC(C5)N6)nc(OCC56CCCN5CC(F)C6)nc4c3F)c12 (stereo unspecified) + CC(Nc1ncnc2nc[nH]c12)c1cc2cccc(Cl)c2c(=O)n1-c1ccccc1,IC50,second compound 0.0316 µM,> 10 µM
same,IC50,second compound 0.1 µM,> 10 µM
same,IC50,second compound 0.316 µM,> 10 µM
same,IC50,second compound 1 µM,6.37 µM
same,IC50,second compound 3.16 µM,3.95 µM
same,IC50,second compound 10 µM,1.76 µM
same,"viability, T/C",[1],94.9%
same,"viability, T/C",[2],73.8%
same,"viability, T/C",[3],77.2%
same,"viability, T/C",[4],71.8%
same,"viability, T/C",[5],68.8%
same,"viability, T/C",[6],46.7%
same,"viability, T/C",[7],91.5%
same,"viability, T/C",[8],96.5%
same,"viability, T/C",[9],79.7%
same,"viability, T/C",[10],71.7%
same,"viability, T/C",[11],68.1%
same,"viability, T/C",[12],54.4%
same,"viability, T/C",[13],96.7%
same,"viability, T/C",[14],83.3%
same,"viability, T/C",[15],79.3%
same,"viability, T/C",[16],73.5%
same,"viability, T/C",[17],66.9%
same,"viability, T/C",[18],47.3%
same,"viability, T/C",[19],100%
same,"viability, T/C",[20],85.5%
same,"viability, T/C",[21],71.1%
same,"viability, T/C",[22],70.3%
same,"viability, T/C",[23],57.9%
same,"viability, T/C",[24],43.8%
same,"viability, T/C",[25],102%
same,"viability, T/C",[26],88.6%
same,"viability, T/C",[27],71.7%
same,"viability, T/C",[28],61%
same,"viability, T/C",[29],56%
same,"viability, T/C",[30],40.6%
same,"viability, T/C",[31],95.2%
same,"viability, T/C",[32],81.6%
same,"viability, T/C",[33],68.4%
same,"viability, T/C",[34],55.4%
same,"viability, T/C",[35],45.3%
same,"viability, T/C",[36],31.8%
CC(Cn1ccc(-c2ccc(C#N)c(Cl)c2)n1)NC(=O)c1cc(C(C)O)[nH]n1 (stereo unspecified) + CC(Nc1ncnc2nc[nH]c12)c1cc2cccc(Cl)c2c(=O)n1-c1ccccc1,IC50,second compound 0.0316 µM,> 10 µM
same,IC50,second compound 0.1 µM,> 10 µM
same,IC50,second compound 0.316 µM,> 10 µM
same,IC50,second compound 1 µM,> 10 µM
same,IC50,second compound 3.16 µM,> 10 µM
same,IC50,second compound 10 µM,> 10 µM
same,"viability, T/C",[1],97.8%
same,"viability, T/C",[2],94.9%
same,"viability, T/C",[3],96.6%
same,"viability, T/C",[4],92.1%
same,"viability, T/C",[5],102%
same,"viability, T/C",[6],104%
same,"viability, T/C",[7],99.1%
same,"viability, T/C",[8],98.5%
same,"viability, T/C",[9],91.7%
same,"viability, T/C",[10],89%
same,"viability, T/C",[11],101%
same,"viability, T/C",[12],84.1%
same,"viability, T/C",[13],97%
same,"viability, T/C",[14],97.8%
same,"viability, T/C",[15],94.1%
same,"viability, T/C",[16],99.5%
same,"viability, T/C",[17],104%
same,"viability, T/C",[18],89.7%
same,"viability, T/C",[19],94.4%
same,"viability, T/C",[20],94.4%
same,"viability, T/C",[21],89.5%
same,"viability, T/C",[22],98.7%
same,"viability, T/C",[23],113%
same,"viability, T/C",[24],90.2%
same,"viability, T/C",[25],95.1%
same,"viability, T/C",[26],95.8%
same,"viability, T/C",[27],83.4%
same,"viability, T/C",[28],92.2%
same,"viability, T/C",[29],94.5%
same,"viability, T/C",[30],96.2%
same,"viability, T/C",[31],95%
same,"viability, T/C",[32],99.2%
same,"viability, T/C",[33],104%
same,"viability, T/C",[34],92.3%
same,"viability, T/C",[35],95.1%
same,"viability, T/C",[36],91.8%
CC1(C)CCC(Nc2ncc(C(F)(F)F)c(-c3c[nH]c4c(P(C)(C)=O)c(C#N)ccc34)n2)CN1 (stereo unspecified) + CC(Nc1ncnc2nc[nH]c12)c1cc2cccc(Cl)c2c(=O)n1-c1ccccc1,IC50,second compound 0.0316 µM,> 10 µM
same,IC50,second compound 0.1 µM,> 10 µM
same,IC50,second compound 0.316 µM,> 10 µM
same,IC50,second compound 1 µM,> 10 µM
same,IC50,second compound 3.16 µM,> 10 µM
same,IC50,second compound 10 µM,9.12 µM
same,"viability, T/C",[1],97.6%
same,"viability, T/C",[2],93%
same,"viability, T/C",[3],93.1%
same,"viability, T/C",[4],129%
same,"viability, T/C",[5],160%
same,"viability, T/C",[6],64.5%
same,"viability, T/C",[7],98%
same,"viability, T/C",[8],91.5%
same,"viability, T/C",[9],95.1%
same,"viability, T/C",[10],117%
same,"viability, T/C",[11],159%
same,"viability, T/C",[12],52.2%
same,"viability, T/C",[13],93.8%
same,"viability, T/C",[14],86.8%
same,"viability, T/C",[15],114%
same,"viability, T/C",[16],120%
same,"viability, T/C",[17],164%
same,"viability, T/C",[18],55.7%
same,"viability, T/C",[19],98.8%
same,"viability, T/C",[20],92.9%
same,"viability, T/C",[21],86.5%
same,"viability, T/C",[22],139%
same,"viability, T/C",[23],166%
same,"viability, T/C",[24],54.1%
same,"viability, T/C",[25],91.9%
same,"viability, T/C",[26],86%
same,"viability, T/C",[27],89.6%
same,"viability, T/C",[28],113%
same,"viability, T/C",[29],154%
same,"viability, T/C",[30],53.3%
same,"viability, T/C",[31],88.7%
same,"viability, T/C",[32],81.6%
same,"viability, T/C",[33],102%
same,"viability, T/C",[34],128%
same,"viability, T/C",[35],152%
same,"viability, T/C",[36],44.7%
